Measured values taken from patent US5733867A, “1, 5-benzodiazepine derivatives” (Glaxo Wellcome SpA, priority 1993, dated 1998).

Columns and labels:
CCK-A receptor = test: CCK-receptor binding, CCK-A (Pancreas Assay)
Procedure: (§1) The greater affinity of the compounds of the invention for the CCK-B receptor over the CCK-A receptor has also been established using the CCK receptor binding assays described by G Dal Forno et al., J. Pharmcol. Exp & Ther. 261, 1056-1063, 1992.
(§2) The binding affinity of the compounds of the invention for the CCK-A receptor (Pancreas Assay) and CCK-B receptor (guinea pig cortex assay) was determined using the procedure of G Dal Forno et al J. Pharmacol. Exp & Ther. 261--1056-1063. The pKi values determined with respresentative compounds of invention were as follows: […]

CCK-B receptor = biological target: T1, CCK-B receptor (Cavia porcellus, UniProt H0VZC5); test: CCK-receptor binding, CCK-B (guinea pig cortex assay); conditions: read-out: pKi CCK-B (converted)
T1 construct: CCK-B receptor (guinea pig cortex assay); from tissue; host or cells: guinea pig cortex
T1 sequence (H0VZC5 1-426): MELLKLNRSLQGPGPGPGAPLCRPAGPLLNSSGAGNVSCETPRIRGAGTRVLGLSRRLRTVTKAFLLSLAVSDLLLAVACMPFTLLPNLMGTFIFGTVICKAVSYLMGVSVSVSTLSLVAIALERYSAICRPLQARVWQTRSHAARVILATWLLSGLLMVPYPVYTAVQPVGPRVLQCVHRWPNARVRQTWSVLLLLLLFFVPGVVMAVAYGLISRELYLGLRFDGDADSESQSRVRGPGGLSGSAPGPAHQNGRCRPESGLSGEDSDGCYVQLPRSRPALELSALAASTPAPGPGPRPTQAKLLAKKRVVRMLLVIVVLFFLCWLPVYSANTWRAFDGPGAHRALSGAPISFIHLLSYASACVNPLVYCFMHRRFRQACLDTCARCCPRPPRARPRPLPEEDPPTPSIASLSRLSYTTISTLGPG
Procedure: as §1, §2

Structure (SMILES) | pKi CCK-A (CCK-A receptor) | Ki (CCK-B receptor)
O=C(O)CCCOc1ccc(NC(=O)NC2C(=O)N(CC34CC5CC(CC(C5)C3)C4)c3ccccc3N(c3ccccc3)C2=O)cc1 (single isomer, unassigned; (+)) [Example 3, (+)N-[1-(1-Adamantylmethyl)-2,4-dioxo-5-phenyl-2,3,4,5-tetrahydro-1H-1,5benzodiazepin-3-yl]-N'-[4-(4-oxobutanoic acid)phenyl]urea] | < 5.0 | 3.8 nM
O=C(Nc1cccc(NCC(O)CO)c1)NC1C(=O)N(CC23CC4CC(CC(C4)C2)C3)c2ccccc2N(c2ccccc2)C1=O (single isomer, unassigned; (+)) [Example 5, (+)N-[1-(1-Adamantylmethyl)-2,4-dioxo-5-phenyl-2,3,4,5-tetrahydro-1H-1,5-benzodiazepin-3-yl]N'-[3-(2,3-dihydroxypropylamino)phenyl]urea] | 5.13 | 0.676 nM
O=C(Nc1cccc(CN2CCOCC2)c1)NC1C(=O)N(CC23CC4CC(CC(C4)C2)C3)c2ccccc2N(c2ccccc2)C1=O (single isomer, unassigned; (+)) [Example 1, (+)N-[1-(1-Adamantylmethyl)-2,4-dioxo-5-phenyl-2,3,4,5-tetrahydro-1H-1,5-benzodiazepin-3-yl]-N'-(3-(4-morpholinomethyl)phenyl]-urea] | 4.70 | –
O=C(Nc1cccc(C(=O)OCCN2CCOCC2)c1)NC1C(=O)N(CC23CC4CC(CC(C4)C2)C3)c2ccccc2N(c2ccccc2)C1=O (single isomer, unassigned; (+)) [Example 4, (+)N-[1-(1-Adamantylmethyl)-2,4-dioxo-5-phenyl-2,3,4,5-tetrahydro-1H-5-benzodiazepin-3-yl]-N'-[3-[2-(4-Morpholino)ethoxycarbonyl]phenyl]urea] | 6.47 | 0.562 nM
O=CNc1cccc(NC(=O)NC2C(=O)N(CC34CC5CC(CC(C5)C3)C4)c3ccccc3N(c3ccccc3)C2=O)c1 (racemic) [Example 6, N-[1-(1-Adamantylmethyl)-2,4-dioxo-5-phenyl-2,3,4,5-tetrahydro-1H-1,5-benzodiazepin-3-yl]-N'-(3-formylaminophenyl)urea] | 5.95 | 0.955 nM
CCOC(=O)CCCOc1ccc(NC(=O)NC2C(=O)N(CC34CC5CC(CC(C5)C3)C4)c3ccccc3N(c3ccccc3)C2=O)cc1 (single isomer, unassigned; (+)) [Example 2, (+)N-[1-(1-Adamantylmethyl)-2,4-dioxo-5-phenyl-2,3,4,5-tetrahydro-1H-1,5-benzodiazepin-3yl]-N'-[4-(3-(ethoxycarbonyl)propyl-1-oxo)phenyl]urea] | < 5.0 | 5.25 nM
CC(=O)Nc1cccc(NC(=O)NC2C(=O)N(CC34CC5CC(CC(C5)C3)C4)c3ccccc3N(c3ccccc3)C2=O)c1 (racemic) [Example 7, N-[1-(1-Adamantylmethyl)-2,4-dioxo-5-phenyl-2,3,4,5-tetrahydro-1H-1,5-benzodiazepin-3-yl]-N'-(3-acetamidophenyl)urea] | 5.82 | 1.32 nM
